Measured values published in patent US10792289B2 (Horizon Orphan LLC, priority 2009, dated 2020).

System: P. aeruginosa
Assay: Phase 2 study: P. aeruginosa density in sputum
Format: in vivo, Pseudomonas aeruginosa
Details: EE; for Reduction in P. aeruginosa density in sputum: median Day 1 to Day 28
Procedure: The following dosage regimens (as nebulizer loaded doses) were evaluated: 120 mg QD (daily); 240 mg QD (daily); and 240 mg BID (twice daily).
Patients were assessed on Day 1, 7, 14, and 28, and then up to 28 days after completion of study drug, namely, Days 42 and 56. The end of the study was defined as the last visit of the last patient.
Efficacy was evaluated by microbiologic assessment of sputum samples, time to need for anti-pseudomonal antimicrobials, the Cystic Fibrosis Questionaire-Revised (CFQ-R), and pulmonary function tests. […] Pair-wise comparisons between all the treatment arms were conducted as secondary analyses.

[1] = combined 240 mg QD and BID, Baseline to Day 7
[2] = combined 240 mg QD and BID, Baseline to Day 14
[3] = combined 240 mg QD and BID, Baseline to Day 28
[4] = combined 240 mg QD and BID, Day 1
[5] = combined 240 mg QD and BID, Day 7
[6] = combined 240 mg QD and BID, Day 14
[7] = combined 240 mg QD and BID, Day 28

**Q.** Which results are given for `C[C@H]1COc2c(N3CCN(C)CC3)c(F)cc3c(=O)c(C(=O)O)cn1c23` [Levofloxacin, levofloxacin]?
**A.** Change in P. aeruginosa density, mean (SD) (120 mg QD, Baseline to Day 7): −0.76 (1.263) log10 CFU sputum; Change in P. aeruginosa density, median (120 mg QD, Baseline to Day 7): −0.58 log10 CFU sputum; Change in P. aeruginosa density, mean (SD) (120 mg QD, Baseline to Day 14): −0.10 (1.240) log10 CFU sputum; Change in P. aeruginosa density, median (120 mg QD, Baseline to Day 14): 0.00 log10 CFU sputum; Change in P. aeruginosa density, mean (SD) (120 mg QD, Baseline to Day 28): −0.31 (1.050) log10 CFU sputum; Change in P. aeruginosa density, median (120 mg QD, Baseline to Day 28): −0.20 log10 CFU sputum; P. aeruginosa density, median (120 mg QD, Day 1): 8.17 log10 CFU sputum; P. aeruginosa density, mean (SD) (120 mg QD, Day 7): 6.64 (1.818) log10 CFU sputum; P. aeruginosa density, median (120 mg QD, Day 7): 6.86 log10 CFU sputum; P. aeruginosa density, mean (SD) (120 mg QD, Day 14): 7.32 (1.643) log10 CFU sputum; P. aeruginosa density, median (120 mg QD, Day 14): 8.00 log10 CFU sputum; P. aeruginosa density, mean (SD) (120 mg QD, Day 28): 7.25 (1.431) log10 CFU sputum; P. aeruginosa density, median (120 mg QD, Day 28): 7.78 log10 CFU sputum; Reduction in P. aeruginosa density in sputum (120 mg QD): approximately 59%; Change in P. aeruginosa density, mean (SD) (240 mg BID, Baseline to Day 7): −1.03 (1.921) log10 CFU sputum; Change in P. aeruginosa density, median (240 mg BID, Baseline to Day 7): −0.88 log10 CFU sputum; Change in P. aeruginosa density, mean (SD) (240 mg BID, Baseline to Day 14): −0.83 (1.901) log10 CFU sputum; Change in P. aeruginosa density, median (240 mg BID, Baseline to Day 14): −0.91 log10 CFU sputum; Change in P. aeruginosa density, mean (SD) (240 mg BID, Baseline to Day 28): −0.74 (1.488) log10 CFU sputum; Change in P. aeruginosa density, median (240 mg BID, Baseline to Day 28): −0.68 log10 CFU sputum; P. aeruginosa density, mean (SD) (240 mg BID, Day 1): 7.26 (1.433) log10 CFU sputum; P. aeruginosa density, median (240 mg BID, Day 1): 7.84 log10 CFU sputum; P. aeruginosa density, mean (SD) (240 mg BID, Day 7): 6.23 (1.850) log10 CFU sputum; P. aeruginosa density, median (240 mg BID, Day 7): 6.52 log10 CFU sputum; P. aeruginosa density, mean (SD) (240 mg BID, Day 14): 6.43 (1.725) log10 CFU sputum; P. aeruginosa density, median (240 mg BID, Day 14): 6.81 log10 CFU sputum; P. aeruginosa density, mean (SD) (240 mg BID, Day 28): 6.65 (1.440) log10 CFU sputum; P. aeruginosa density, median (240 mg BID, Day 28): 6.40 log10 CFU sputum; Reduction in P. aeruginosa density in sputum (240 mg BID): approximately 96%; Change in P. aeruginosa density, mean (SD) (240 mg QD, Baseline to Day 7): −0.25 (1.789) log10 CFU sputum; Change in P. aeruginosa density, median (240 mg QD, Baseline to Day 7): −0.18 log10 CFU sputum; Change in P. aeruginosa density, mean (SD) (240 mg QD, Baseline to Day 14): −0.47 (1.905) log10 CFU sputum; Change in P. aeruginosa density, median (240 mg QD, Baseline to Day 14): −0.11 log10 CFU sputum; Change in P. aeruginosa density, mean (SD) (240 mg QD, Baseline to Day 28): −0.38 (1.780) log10 CFU sputum; Change in P. aeruginosa density, median (240 mg QD, Baseline to Day 28): −0.52 log10 CFU sputum; P. aeruginosa density, mean (SD) (240 mg QD, Day 1): 7.16 (1.597) log10 CFU sputum; P. aeruginosa density, median (240 mg QD, Day 1): 7.97 log10 CFU sputum; P. aeruginosa density, mean (SD) (240 mg QD, Day 7): 6.94 (1.783) log10 CFU sputum; P. aeruginosa density, median (240 mg QD, Day 7): 7.15 log10 CFU sputum; P. aeruginosa density, mean (SD) (240 mg QD, Day 14): 6.69 (1.628) log10 CFU sputum; P. aeruginosa density, median (240 mg QD, Day 14): 6.46 log10 CFU sputum; P. aeruginosa density, mean (SD) (240 mg QD, Day 28): 6.78 (1.896) log10 CFU sputum; P. aeruginosa density, median (240 mg QD, Day 28): 7.38 log10 CFU sputum; Reduction in P. aeruginosa density in sputum (240 mg QD): approximately 74%; Largest difference in P. aeruginosa density, placebo vs levofloxacin (Day 7): 1.62 log10 CFU/g sputum; Largest difference in P. aeruginosa density, placebo vs levofloxacin (Day 14): 1.39 log10 CFU/g sputum; Largest difference in P. aeruginosa density, placebo vs levofloxacin (Day 28): 1.88 log10 CFU/g sputum; Change in P. aeruginosa density, mean (SD) [1]: −0.64 (1.833) log10 CFU sputum; Change in P. aeruginosa density, median [1]: −0.37 log10 CFU sputum; Change in P. aeruginosa density, mean (SD) [2]: −0.65 (1.898) log10 CFU sputum; Change in P. aeruginosa density, median [2]: −0.46 log10 CFU sputum; Change in P. aeruginosa density, mean (SD) [3]: −0.55 (1.645) log10 CFU sputum; Change in P. aeruginosa density, median [3]: −0.58 log10 CFU sputum; P. aeruginosa density, mean (SD) [4]: 7.21 (1.508) log10 CFU sputum; P. aeruginosa density, median [4]: 7.90 log10 CFU sputum; P. aeruginosa density, mean (SD) [5]: 6.59 (1.838) log10 CFU sputum; P. aeruginosa density, median [5]: 6.77 log10 CFU sputum; P. aeruginosa density, mean (SD) [6]: 6.56 (1.669) log10 CFU sputum; P. aeruginosa density, median [6]: 6.78 log10 CFU sputum; P. aeruginosa density, mean (SD) [7]: 6.72 (1.683) log10 CFU sputum; P. aeruginosa density, median [7]: 6.90 log10 CFU sputum
